Test system: mAB/LPS-induced experimental arthritis in male BALB/c mice
Experiment: mAb/LPS-induced mice arthritis model
Assay type: in vivo
Conditions: Enbrel 5 mg/kg/day IP
Method: Treatment Regimen: Compound A was administered by oral gavage (PO), using a suitable stainless steel feeding needle. Enbrel (Reference Item) was administrated by intraperitoneal (IP) injections. Compound A was first administered on study Day 3 (one hour prior to the single LPS injection) and thereafter on Days 4, 5, 6, 7, 8, 9, 10, 11, 12 and 13 (total of 11 successive treatment days) at 1, 5 and 25 mg/kg once daily. Compound A treated groups comprised n=8 BALB/c male mice per dosing group. In addition, two equally sized groups were treated with either Enbrel (5 mg/kg/day, Reference Item), or a solution of 0.5% Na CMC/0.25% Tween 80 (PO, 5 ml/kg, Vehicle Control).
Arthritis Reactions: Both hind paws (left and right) of each animal were examined for signs of arthritogenic responses prior to arthritis induction (Day 0) and thereafter on study days 4, 5, 6, 7, 9, 11 & 14 as selected by the Sponsor. Arthritis reactions were scored and recorded according to a 0-4 scale in ascending order of severity (based on Morwell MD Biosciences Inc. brochure) as shown in Table 1.
Measurements of Experimental Arthritis: Hind paw thickness was determined on eight days using a Mitutoyo Electronic Digital Caliper (on Days 0, 4, 5, 6, 7, 9, 11 and 14) and presented as mean group values of the average for both left and right hind paws.

[1] = Day 0 (prior to arthritis induction)

Enbrel
Arthritis Scoring, mean of both hind paws (0-4 scale) [1]: 0
Hind Paws Thickness, group mean [1]: 2.2 mm
Arthritis Scoring, mean of both hind paws (0-4 scale) (Day 4): 0
Hind Paws Thickness, group mean (Day 4): 2.2 mm
Percentage Change in Hind Paw Thickness vs. Study Commencement (Day 0), group mean (Day 4): 0%
Arthritis Scoring, mean of both hind paws (0-4 scale) (Day 5): 1
Hind Paws Thickness, group mean (Day 5): 2.3 mm
Percentage Change in Hind Paw Thickness vs. Study Commencement (Day 0), group mean (Day 5): 6%
Arthritis Scoring, mean of both hind paws (0-4 scale) (Day 6): 1
Hind Paws Thickness, group mean (Day 6): 2.5*↓ mm
Percentage Change in Hind Paw Thickness vs. Study Commencement (Day 0), group mean (Day 6): 13%
Arthritis Scoring, mean of both hind paws (0-4 scale) (Day 7): 1**↓
Hind Paws Thickness, group mean (Day 7): 2.5**↓ mm
Percentage Change in Hind Paw Thickness vs. Study Commencement (Day 0), group mean (Day 7): 12**↓ %
Arthritis Scoring, mean of both hind paws (0-4 scale) (Day 9): 1***↓
Hind Paws Thickness, group mean (Day 9): 2.3**↓ mm
Percentage Change in Hind Paw Thickness vs. Study Commencement (Day 0), group mean (Day 9): 7**↓ %
Arthritis Scoring, mean of both hind paws (0-4 scale) (Day 11): 0***↓
Hind Paws Thickness, group mean (Day 11): 2.3**↓ mm
Percentage Change in Hind Paw Thickness vs. Study Commencement (Day 0), group mean (Day 11): 4**↓ %
Arthritis Scoring, mean of both hind paws (0-4 scale) (Day 14): 0**↓
Hind Paws Thickness, group mean (Day 14): 2.3**↓ mm
Percentage Change in Hind Paw Thickness vs. Study Commencement (Day 0), group mean (Day 14): 4**↓ %

— patent US20090239926A1, “METHODS FOR THE TREATMENT OF PSORIASIS OR PSORIATIC ARTHRITIS USING CYCLOPROPYL-N-CARBOXAMIDE” (priority 2008, published 2009)
